Where “and” joins values, the source holds several entries; their conditions need not be identical. Equal values may be shown once. Toxic doses and inconclusive results are not listed. How the source made its calls: active means survival T/C of 150% or more; inactive means T/C below 125% in these data.
Tested on: CD2F1 mice, L1210 leukemia ip, survival T/C
Assay: NCI In Vivo Anticancer Drug Screen. Data for tumor model L1210 Leukemia (intraperitoneal) in CD2F1 (CDF1) mice
Conditions: higher = longer survival
How it was run: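 Read-out first: treated-group measurement over vehicle-control measurement, expressed as a ratio. Animals bore a transplanted tumor line and were dosed with compound or vehicle.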

[1] = endpoint: mean survival time, dose: 100.0 mg/kg/injection, schedule: Q01DX009 (ip), vehicle: saline with Tween-80
[2] = endpoint: mean survival time, dose: 100.0 mg/kg/injection, schedule: Q01DX001 (ip), vehicle: saline with Tween-80
[3] = endpoint: mean survival time, dose: 200.0 mg/kg/injection, schedule: Q01DX001 (ip), vehicle: saline with Tween-80
[4] = endpoint: mean survival time, dose: 50.0 mg/kg/injection, schedule: Q01DX001 (ip), vehicle: saline with Tween-80
[5] = endpoint: mean survival time, dose: 100.0 mg/kg/injection, schedule: Q04DX002 (ip), vehicle: saline with Tween-80
[6] = endpoint: mean survival time, dose: 200.0 mg/kg/injection, schedule: Q04DX002 (ip), vehicle: saline with Tween-80
[7] = endpoint: mean survival time, dose: 400.0 mg/kg/injection, schedule: Q04DX002 (ip), vehicle: saline with Tween-80

Measured: T/C

OC1OCC(COc2ccc(Cl)cc2)OC1O (stereo not drawn)
inactive: endpoint: median survival time, dose: 25.0 mg/kg/injection, schedule: Q01DX005 (ip), vehicle: saline with Tween-80 102 % of control | endpoint: median survival time, dose: 50.0 mg/kg/injection, schedule: Q01DX005 (ip), vehicle: saline with Tween-80 102 % of control | endpoint: median survival time, dose: 100.0 mg/kg/injection, schedule: Q01DX005 (ip), vehicle: saline with Tween-80 115 % of control | endpoint: median survival time, dose: 144.0 mg/kg/injection, schedule: Q01DX005 (ip), vehicle: saline with Tween-80 102 % of control | endpoint: median survival time, dose: 200.0 mg/kg/injection, schedule: Q01DX005 (ip), vehicle: saline with Tween-80 117 % of control | endpoint: median survival time, dose: 240.0 mg/kg/injection, schedule: Q01DX005 (ip), vehicle: saline with Tween-80 101 % of control | endpoint: median survival time, dose: 400.0 mg/kg/injection, schedule: Q01DX005 (ip), vehicle: saline with Tween-80 96 % of control

Cc1o[nH]c(=O)c1C
inactive: [1] 96 % of control | endpoint: mean survival time, dose: 200.0 mg/kg/injection, schedule: Q01DX009 (ip), vehicle: saline with Tween-80 98 % of control | endpoint: mean survival time, dose: 400.0 mg/kg/injection, schedule: Q01DX009 (ip), vehicle: saline with Tween-80 98 % of control

COc1ccc(CCN)cc1OC
inactive: endpoint: mean survival time, dose: 50.0 mg/kg/injection, schedule: Q01DX009 (ip), vehicle: saline 94 % of control | endpoint: mean survival time, dose: 100.0 mg/kg/injection, schedule: Q01DX009 (ip), vehicle: saline 94 % of control | endpoint: mean survival time, dose: 100.0 mg/kg/injection, schedule: Q04DX003 (ip), vehicle: saline with Tween-80 97 % of control | endpoint: mean survival time, dose: 200.0 mg/kg/injection, schedule: Q01DX009 (ip), vehicle: saline 97 % of control | endpoint: mean survival time, dose: 200.0 mg/kg/injection, schedule: Q04DX003 (ip), vehicle: saline with Tween-80 93 % of control

NC(CCl)=NCCc1ccsc1
inactive: endpoint: mean survival time, dose: 25.0 mg/kg/injection, schedule: Q04DX002 (ip), vehicle: saline 95 % of control | endpoint: mean survival time, dose: 50.0 mg/kg/injection, schedule: Q04DX002 (ip), vehicle: saline 106 % of control | endpoint: mean survival time, dose: 100.0 mg/kg/injection, schedule: Q04DX002 (ip), vehicle: saline 98 % of control and 112 % of control

COc1ccc(C2NN(C)C3(O)C(=O)N(C4CCCCC4)CC23)cc1 (stereo not drawn)
inactive: [2] 107 % of control | [3] 94 % of control | endpoint: mean survival time, dose: 400.0 mg/kg/injection, schedule: Q01DX001 (ip), vehicle: saline with Tween-80 96 % of control

CCCCCCCCCCCC1=C(O)C(=O)C=C(O)C1=O
inactive: endpoint: mean survival time, dose: 12.5 mg/kg/injection, schedule: Q01DX001 (ip), vehicle: saline 102 % of control | endpoint: mean survival time, dose: 25.0 mg/kg/injection, schedule: Q01DX001 (ip), vehicle: saline 123 % of control | endpoint: mean survival time, dose: 50.0 mg/kg/injection, schedule: Q01DX001 (ip), vehicle: saline 101 % of control

CC(c1ccccc1)n1cncc1CN1CCOCC1 (stereo not drawn)
inactive: endpoint: mean survival time, dose: 12.5 mg/kg/injection, schedule: Q04DX002 (ip), vehicle: saline with Tween-80 91 % of control | endpoint: mean survival time, dose: 25.0 mg/kg/injection, schedule: Q01DX001 (ip), vehicle: saline with Tween-80 102 % of control | endpoint: mean survival time, dose: 25.0 mg/kg/injection, schedule: Q04DX002 (ip), vehicle: saline with Tween-80 98 % of control | [4] 102 % of control | endpoint: mean survival time, dose: 50.0 mg/kg/injection, schedule: Q04DX002 (ip), vehicle: saline with Tween-80 98 % of control | [2] 95 % of control and 98 % of control | [5] 95 % of control

O=S(=O)(OCCCCCCOS(=O)(=O)c1cccnc1)c1cccnc1
inactive: endpoint: mean survival time, dose: 10.0 mg/kg/injection, schedule: Q04DX002 (ip), vehicle: saline with Tween-80 107 % of control

O=C1C=C(O)c2cc(Br)ccc2C1=O
inactive: endpoint: mean survival time, dose: 100.0 mg/kg/injection, schedule: Q01DX001 (ip), vehicle: saline 102 % of control | endpoint: mean survival time, dose: 200.0 mg/kg/injection, schedule: Q01DX001 (ip), vehicle: saline 98 % of control | endpoint: mean survival time, dose: 400.0 mg/kg/injection, schedule: Q01DX001 (ip), vehicle: saline 98 % of control

COc1nc2c(N)ncnc2n1C1OC(CO)C(O)C1O (stereo not drawn)
inactive: [5] 103 % of control | [6] 103 % of control | [7] 96 % of control

Nc1cc(=O)[nH]c(=S)[nH]1
inactive: [5] 97 % of control | [6] 105 % of control

Nc1ccc(OCc2nc(N)nc(N)c2-c2ccc(Cl)cc2)cc1
inactive: [4] 95 % of control | [2] 101 % of control | [3] 93 % of control

O=C(O)CC12CCCCC1CCCC2 (stereo not drawn)
inactive: endpoint: mean survival time, dose: 100.0 mg/kg/injection, schedule: Q04DX003 (ip), vehicle: acetone 95 % of control | endpoint: mean survival time, dose: 200.0 mg/kg/injection, schedule: Q04DX003 (ip), vehicle: acetone 91 % of control | endpoint: mean survival time, dose: 400.0 mg/kg/injection, schedule: Q04DX003 (ip), vehicle: acetone 90 % of control

O=C(O)c1c(Cl)c(Cl)c(Cl)c(Cl)c1C(=O)O
inactive: [5] 97 % of control | [6] 101 % of control | [7] 105 % of control

O=C1C2CCCC3CCCC(C(=O)N1NC1CCCCC1)C32 (stereo not drawn)
inactive: endpoint: mean survival time, dose: 12.5 mg/kg/injection, schedule: Q01DX009 (ip), vehicle: saline with Tween-80 96 % of control | endpoint: mean survival time, dose: 25.0 mg/kg/injection, schedule: Q01DX009 (ip), vehicle: saline with Tween-80 89 % of control | endpoint: mean survival time, dose: 50.0 mg/kg/injection, schedule: Q01DX009 (ip), vehicle: saline with Tween-80 86 % of control | [1] 88 % of control

— PubChem BioAssay AID256 (DTP/NCI, 2004)
